Source: US6441184B1, “Fused heteroaromatic glucokinase activators” (Hoffmann-LA Roche Inc., priority 2000, dated 2002)

tested on: C57BL/6J mice; test: Glucokinase activator in vivo screen protocol (blood glucose after oral dosing); conditions: administered orally, 50 mg/kg, C57BL/6J mice fasted two hours; active = significant (p<0.05) decrease in blood glucose vs vehicle for two consecutive time points
Protocol: Glucokinase Activator in vivo Screen Protocol
C57BL/6J mice are orally dosed via gavage with Glucokinase (GK) activator at 50 mg/kg body weight following a two hour fasting period. Blood glucose determinations are made five times during the six hour post-dose study period.
Mice (n=6) are weighed and fasted for a two hour period prior to oral treatment. GK activators are formulated at 6.76 mg/ml in Gelucire vehicle (Ethanol:Gelucire44/14:PEG400q.s. 4:66:30 v/w/v. Mice are dosed orally with 7.5 μL formulation per gram of body weight to equal a 50 mg/kg dose. Immediately prior to dosing, a pre dose (time zero) blood glucose reading is acquired by snipping off a small portion of the animals tail (−1 mm) and collecting 15 μL blood into a heparinized capillary tube for analysis. Following GK activator administration, additional blood glucose readings are taken at 1, 2, 4, and 6 hours post dose from the same tail wound. Results are interpreted by comparing the mean blood glucose values of six vehicle treated mice with six GK activator treated mice over the six hour study duration.

| Compound | glucokinase activator in vivo activity |
| --- | --- |
| CS(=O)(=O)c1ccc([C@@H](CC2CCCC2)C(=O)Nc2nc3ccccc3s2)cc1Cl [Example 19, N-Benzothiazol-2-yl-2(R)-(3-chloro-4-methanesulfonyl-phenyl)-3-cyclopentyl-propionamide] | excellent glucokinase activator in vivo activity |
| CS(=O)(=O)c1ccc(C(CC2CCCC2)C(=O)Nc2nc3ccccc3[nH]2)cc1Cl (stereo not drawn) [Example 20, N-(1H-Benzoimidazol-2-yl)-2-(3-chloro-4-methanesulfonyl-phenyl)-3-cyclopentyl-propionamide] | excellent glucokinase activator in vivo activity |
| CS(=O)(=O)c1ccc(C(CC2CCCC2)C(=O)Nc2ccc3ccccc3n2)cc1Cl (stereo not drawn) [Example 22, 2-(3-Chloro-4-methanesulfonyl-phenyl)-3-cyclopentyl-N-quinolin-2-yl-propionamide] | excellent glucokinase activator in vivo activity |
